PubChem BioAssay AID1845207 (Molecular Pharmacology Branch, DTP, NCI, 2023)
Values joined by “and” are separate entries in the source; they are usually repeats but may differ in a detail not shown here. Equal values may be shown once.

Test system: NCI-H1876 tumor spheroid viability
Assay: Anticancer human tumor NCI-H1876 cell line growth inhibition;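 also: spheroids exposed to compounds for seven days before the viability read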;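 as to viability, T/C: percent of DMSO vehicle control viability so 100% = vehicle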
Details: spheroids with HUVEC and MSC; for viability, T/C: stronger effect = lower value
Outline: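 Complex spheroids of malignant cells with endothelial cells and mesenchymal stem cells; agents alone or combined, from near clinical Cmax (or 10 microM if unknown) down in half-log steps, 0.25% DMSO final.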

Work on CC1COCCN1c1cc(-c2ccnn2C)c2ccnc(-c3ccn[nH]3)c2n1 (configuration not stated) + Cn1nnc2c(C(N)=O)ncn2c1=O yielded an IC50 (curve of first compound, second compound 1 µM) of 55.4 nM, an IC50 (curve of first compound, second compound 3.16 µM) of 54.5 nM and an IC50 (curve of first compound, second compound 10 µM) of 59.8 nM. It also gave an IC50 (curve of first compound, second compound 31.6 µM) of 33.6 nM, an IC50 (curve of first compound, second compound 100 µM) of under 31.6 nM and a viability, T/C (second compound 1 µM, first compound 0.0316 µM) of 57%. It also gave a viability, T/C (second compound 1 µM, first compound 0.1 µM) of 42.4%, a viability, T/C (second compound 1 µM, first compound 0.316 µM) of 30.1% and a viability, T/C (second compound 1 µM, first compound 1 µM) of 20.7%. The viability, T/C (second compound 1 µM, first compound 3.16 µM) was 11.2%, the viability, T/C (second compound 1 µM, first compound 10 µM) was 6.47% and the viability, T/C (second compound 3.16 µM, first compound 0.0316 µM) was 57.7%. The viability, T/C (second compound 3.16 µM, first compound 0.1 µM) was 41.3%, the viability, T/C (second compound 3.16 µM, first compound 0.316 µM) was 30.1% and the viability, T/C (second compound 3.16 µM, first compound 1 µM) was 19.4%. The viability, T/C (second compound 3.16 µM, first compound 3.16 µM) was 12.5%, the viability, T/C (second compound 3.16 µM, first compound 10 µM) was 6.71% and the viability, T/C (second compound 10 µM, first compound 0.0316 µM) was 53%. It also gave a viability, T/C (second compound 10 µM, first compound 0.1 µM) of 49.1%, a viability, T/C (second compound 10 µM, first compound 0.316 µM) of 30.1% and a viability, T/C (second compound 10 µM, first compound 1 µM) of 20%. It also gave a viability, T/C (second compound 10 µM, first compound 3.16 µM) of 11%, a viability, T/C (second compound 10 µM, first compound 10 µM) of 7.84% and a viability, T/C (second compound 31.6 µM, first compound 0.0316 µM) of 51.5%. The viability, T/C (second compound 31.6 µM, first compound 0.1 µM) was 35.6%, the viability, T/C (second compound 31.6 µM, first compound 0.316 µM) was 29.5% and the viability, T/C (second compound 31.6 µM, first compound 1 µM) was 17.2%. The viability, T/C (second compound 31.6 µM, first compound 3.16 µM) was 10.8%, the viability, T/C (second compound 31.6 µM, first compound 10 µM) was 7.29% and the viability, T/C (second compound 100 µM, first compound 0.0316 µM) was 32.2%. The viability, T/C (second compound 100 µM, first compound 0.1 µM) was 24%, the viability, T/C (second compound 100 µM, first compound 0.316 µM) was 18.8% and the viability, T/C (second compound 100 µM, first compound 1 µM) was 11.7%. For the same compound, the viability, T/C (second compound 100 µM, first compound 3.16 µM) was 28.5% and the viability, T/C (second compound 100 µM, first compound 10 µM) was 6.09%.

O=C(c1cc(Cc2n[nH]c(=O)c3ccccc23)ccc1F)N1CCN(C(=O)C2CC2)CC1 + COc1cc2c(cc1O)CCNC21CSC2c3c(OC(C)=O)c(C)c4c(c3C(COC1=O)N1C(O)C3Cc5cc(C)c(OC)c(O)c5C(C21)N3C)OCO4 gave an IC50 (curve of first compound, second compound 30 pM) of 3300 nM, an IC50 (curve of first compound, second compound 94.9 pM) of 1900 nM and an IC50 (curve of first compound, second compound 0.0003 µM) of under 94.9 nM. The IC50 (curve of first compound, second compound 0.000949 µM) was under 94.9 nM, the IC50 (curve of first compound, second compound 0.003 µM) was under 94.9 nM and the viability, T/C (second compound 30 pM, first compound 0.0949 µM) was 99.7%. It also gave a viability, T/C (second compound 30 pM, first compound 0.3 µM) of 98.4%, a viability, T/C (second compound 30 pM, first compound 0.949 µM) of 92.7% and a viability, T/C (second compound 30 pM, first compound 3 µM) of 53.4%. It also gave a viability, T/C (second compound 30 pM, first compound 9.49 µM) of 14.2%, a viability, T/C (second compound 30 pM, first compound 30 µM) of 9.96% and a viability, T/C (second compound 94.9 pM, first compound 0.0949 µM) of 85.8%. It also gave a viability, T/C (second compound 94.9 pM, first compound 0.3 µM) of 82.7%, a viability, T/C (second compound 94.9 pM, first compound 0.949 µM) of 70.5% and a viability, T/C (second compound 94.9 pM, first compound 3 µM) of 37.2%. The viability, T/C (second compound 94.9 pM, first compound 9.49 µM) was 7.9%, the viability, T/C (second compound 94.9 pM, first compound 30 µM) was 7.02% and the viability, T/C (second compound 0.0003 µM, first compound 0.0949 µM) was 15.1%. The viability, T/C (second compound 0.0003 µM, first compound 0.3 µM) was 16.9%, the viability, T/C (second compound 0.0003 µM, first compound 0.949 µM) was 12.9% and the viability, T/C (second compound 0.0003 µM, first compound 3 µM) was 7.99%. It also gave a viability, T/C (second compound 0.0003 µM, first compound 9.49 µM) of 5.74%, a viability, T/C (second compound 0.0003 µM, first compound 30 µM) of 4.63% and a viability, T/C (second compound 0.000949 µM, first compound 0.0949 µM) of 2.17%. It also gave a viability, T/C (second compound 0.000949 µM, first compound 0.3 µM) of 2.25%, a viability, T/C (second compound 0.000949 µM, first compound 0.949 µM) of 2.87% and a viability, T/C (second compound 0.000949 µM, first compound 3 µM) of 2.49%. The viability, T/C (second compound 0.000949 µM, first compound 9.49 µM) was 2.27%, the viability, T/C (second compound 0.000949 µM, first compound 30 µM) was 2.54% and the viability, T/C (second compound 0.003 µM, first compound 0.0949 µM) was 6.83%. The viability, T/C (second compound 0.003 µM, first compound 0.3 µM) was 0.52%, the viability, T/C (second compound 0.003 µM, first compound 0.949 µM) was 0.47% and the viability, T/C (second compound 0.003 µM, first compound 3 µM) was 0.53%. The viability, T/C (second compound 0.003 µM, first compound 9.49 µM) was 0.55% and the viability, T/C (second compound 0.003 µM, first compound 30 µM) was 0.95%.

[2H]c1nc(C)nc([2H])c1-c1cc(NC[C@@H](C)c2cccc3c(C(=O)NC)ccnc23)ncn1 was tested, and the viability, T/C (compound 0.0316 µM) was 102% and 103% and 99.3%, the viability, T/C (compound 0.1 µM) was 107% and 55.1% and 102% and the viability, T/C (compound 0.316 µM) was 99.8% and 70.6% and 102%. The viability, T/C (compound 1 µM) was 102% and 101% and 99.3%, the viability, T/C (compound 3.16 µM) was 102% and 90.8% and 97.4% and the viability, T/C (compound 10 µM) was 96.6% and 71% and 95%. The IC50 (curve of compound) was over 10000 nM.
